# Measured values taken from patent US12371428B2 (Exelixis, Inc., priority 2019, dated 2025).
# Legend:
# Type in all cases: cell-based
# [1] = target: AXL (phospho-AXL, Gas6-stimulated A-172 glioblastoma cells) (Homo sapiens (Human), UniProt P30530); test: AXL autophosphorylation ELISA in A-172 cells (Example E); settings: cellular activity; AXL autophosphorylation ELISA in A-172 cells; read-out: Axl IC50
# Procedure, shortened: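 Phospho-AXL in lysates was quantified by ELISA, normalised to DMSO (100%) and reference inhibitor (0%) controls. IC50 by 4-parameter logistic fit.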
# [2] = target: Met (phospho-Met, HGF-stimulated PC-3 prostate cancer cells) (Homo sapiens (Human), UniProt P08581); test: Met autophosphorylation ELISA in PC-3 cells (Example F); settings: cellular activity; Met autophosphorylation ELISA in PC-3 cells; read-out: c-Met IC50
# Procedure, shortened: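 Serum-starved (3 h) PC-3 cells were treated 1 h with compounds (8-point curve, 0.3% DMSO), then stimulated with 100 ng/mL human HGF for 10 min. Lysate phospho-Met (panTyr) was measured by sandwich ELISA, normalised to DMSO and reference-inhibitor controls. IC50 came from 4-parameter logistic fit.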
# [3] = target: KDR (phospho-KDR, VEGF165-stimulated HUVEC cells) (Homo sapiens (Human), UniProt P35968); test: KDR autophosphorylation ELISA in HUVEC cells (Example G); settings: cellular activity; KDR autophosphorylation ELISA in HUVEC cells
# Procedure, shortened: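 HUVEC cells, serum-starved 24 h, were treated 1 h with an 8-point compound dilution (0.3% DMSO) and then stimulated with 100 ng/mL VEGF165 for 5 min. Phospho-KDR in lysates was quantified by sandwich ELISA against a phospho-KDR standard. IC50 from a 4-parameter logistic fit, normalised between stimulated DMSO and unstimulated controls.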
# [4] = target: Mer (phospho-Mer, MERTK-transfected 293A cells) (Homo sapiens (Human), UniProt Q12866); test: Mer autophosphorylation ELISA in transient transfected 293A cells (Example H); settings: cellular activity; Mer autophosphorylation ELISA in transient transfected 293A cells
# Procedure, shortened: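 293A cells transiently transfected with human MERTK were treated 1 h in serum-free medium with an 8-point compound dilution (0.3% DMSO final). Lysates were assayed by phospho-Mer sandwich ELISA against a phospho-Mer standard; IC50 came from a 4-parameter logistic fit, normalised to DMSO (100%) and reference-inhibitor (0%) controls.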
# AXL (phospho-AXL, Gas6-stimulated A-172 glioblastoma cells), sequence (P30530 26-894): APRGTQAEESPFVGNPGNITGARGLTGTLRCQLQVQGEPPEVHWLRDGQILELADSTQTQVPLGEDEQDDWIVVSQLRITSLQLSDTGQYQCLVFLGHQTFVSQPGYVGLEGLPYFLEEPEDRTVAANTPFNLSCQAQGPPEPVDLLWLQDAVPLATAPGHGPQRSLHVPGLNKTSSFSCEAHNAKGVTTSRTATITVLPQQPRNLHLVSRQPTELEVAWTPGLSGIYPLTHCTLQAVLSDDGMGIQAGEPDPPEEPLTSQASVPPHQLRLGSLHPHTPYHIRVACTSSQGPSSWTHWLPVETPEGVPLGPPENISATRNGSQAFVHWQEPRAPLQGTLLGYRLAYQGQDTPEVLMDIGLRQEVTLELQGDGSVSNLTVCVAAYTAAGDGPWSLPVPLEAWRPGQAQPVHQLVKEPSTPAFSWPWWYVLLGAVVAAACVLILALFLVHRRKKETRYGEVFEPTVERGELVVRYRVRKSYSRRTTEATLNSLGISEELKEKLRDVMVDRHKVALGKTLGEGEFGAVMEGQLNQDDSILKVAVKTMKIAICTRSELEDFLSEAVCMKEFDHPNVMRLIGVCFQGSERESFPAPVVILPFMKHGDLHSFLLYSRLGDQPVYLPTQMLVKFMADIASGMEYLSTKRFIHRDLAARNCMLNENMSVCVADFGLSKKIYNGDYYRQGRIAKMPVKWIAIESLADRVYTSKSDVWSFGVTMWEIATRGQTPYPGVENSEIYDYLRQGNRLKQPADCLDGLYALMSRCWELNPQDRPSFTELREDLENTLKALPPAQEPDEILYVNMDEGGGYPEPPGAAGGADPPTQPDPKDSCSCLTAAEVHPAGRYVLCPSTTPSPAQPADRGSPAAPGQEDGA
# Met (phospho-Met, HGF-stimulated PC-3 prostate cancer cells), sequence (P08581 25-1390): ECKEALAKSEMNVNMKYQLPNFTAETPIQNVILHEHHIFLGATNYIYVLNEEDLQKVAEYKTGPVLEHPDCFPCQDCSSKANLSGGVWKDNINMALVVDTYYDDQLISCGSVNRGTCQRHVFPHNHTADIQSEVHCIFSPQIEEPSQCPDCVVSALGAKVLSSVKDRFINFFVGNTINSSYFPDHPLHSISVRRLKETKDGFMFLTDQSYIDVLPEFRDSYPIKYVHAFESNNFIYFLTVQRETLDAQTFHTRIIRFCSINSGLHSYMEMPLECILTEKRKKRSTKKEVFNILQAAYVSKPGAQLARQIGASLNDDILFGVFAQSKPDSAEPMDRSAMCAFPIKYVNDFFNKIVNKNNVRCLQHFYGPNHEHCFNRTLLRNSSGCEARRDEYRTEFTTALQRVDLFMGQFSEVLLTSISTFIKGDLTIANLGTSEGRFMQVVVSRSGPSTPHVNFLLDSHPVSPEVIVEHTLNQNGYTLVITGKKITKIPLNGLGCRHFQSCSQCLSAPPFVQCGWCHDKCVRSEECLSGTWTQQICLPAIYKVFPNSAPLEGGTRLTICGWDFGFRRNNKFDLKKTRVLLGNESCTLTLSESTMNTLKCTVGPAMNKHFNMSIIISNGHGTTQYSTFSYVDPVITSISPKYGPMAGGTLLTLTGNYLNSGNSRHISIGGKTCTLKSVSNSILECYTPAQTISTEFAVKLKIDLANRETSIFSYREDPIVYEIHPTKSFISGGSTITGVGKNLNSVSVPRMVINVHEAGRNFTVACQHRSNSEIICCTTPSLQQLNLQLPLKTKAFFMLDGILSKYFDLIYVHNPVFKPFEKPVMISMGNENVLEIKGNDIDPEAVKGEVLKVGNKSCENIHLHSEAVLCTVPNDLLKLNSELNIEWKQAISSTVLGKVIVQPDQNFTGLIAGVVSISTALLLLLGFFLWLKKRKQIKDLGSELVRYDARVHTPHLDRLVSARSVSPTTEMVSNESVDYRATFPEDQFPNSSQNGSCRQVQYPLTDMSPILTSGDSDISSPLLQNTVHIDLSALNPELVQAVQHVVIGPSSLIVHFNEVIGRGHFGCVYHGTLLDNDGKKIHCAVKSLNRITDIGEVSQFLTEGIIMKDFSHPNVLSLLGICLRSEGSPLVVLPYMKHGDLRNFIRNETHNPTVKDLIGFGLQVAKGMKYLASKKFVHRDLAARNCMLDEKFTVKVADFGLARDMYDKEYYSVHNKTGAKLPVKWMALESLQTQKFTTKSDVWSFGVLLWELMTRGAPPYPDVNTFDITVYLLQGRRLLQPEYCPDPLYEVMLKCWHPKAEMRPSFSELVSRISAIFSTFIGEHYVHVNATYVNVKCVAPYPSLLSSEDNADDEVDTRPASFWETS
# Mer (phospho-Mer, MERTK-transfected 293A cells), sequence (Q12866 21-999): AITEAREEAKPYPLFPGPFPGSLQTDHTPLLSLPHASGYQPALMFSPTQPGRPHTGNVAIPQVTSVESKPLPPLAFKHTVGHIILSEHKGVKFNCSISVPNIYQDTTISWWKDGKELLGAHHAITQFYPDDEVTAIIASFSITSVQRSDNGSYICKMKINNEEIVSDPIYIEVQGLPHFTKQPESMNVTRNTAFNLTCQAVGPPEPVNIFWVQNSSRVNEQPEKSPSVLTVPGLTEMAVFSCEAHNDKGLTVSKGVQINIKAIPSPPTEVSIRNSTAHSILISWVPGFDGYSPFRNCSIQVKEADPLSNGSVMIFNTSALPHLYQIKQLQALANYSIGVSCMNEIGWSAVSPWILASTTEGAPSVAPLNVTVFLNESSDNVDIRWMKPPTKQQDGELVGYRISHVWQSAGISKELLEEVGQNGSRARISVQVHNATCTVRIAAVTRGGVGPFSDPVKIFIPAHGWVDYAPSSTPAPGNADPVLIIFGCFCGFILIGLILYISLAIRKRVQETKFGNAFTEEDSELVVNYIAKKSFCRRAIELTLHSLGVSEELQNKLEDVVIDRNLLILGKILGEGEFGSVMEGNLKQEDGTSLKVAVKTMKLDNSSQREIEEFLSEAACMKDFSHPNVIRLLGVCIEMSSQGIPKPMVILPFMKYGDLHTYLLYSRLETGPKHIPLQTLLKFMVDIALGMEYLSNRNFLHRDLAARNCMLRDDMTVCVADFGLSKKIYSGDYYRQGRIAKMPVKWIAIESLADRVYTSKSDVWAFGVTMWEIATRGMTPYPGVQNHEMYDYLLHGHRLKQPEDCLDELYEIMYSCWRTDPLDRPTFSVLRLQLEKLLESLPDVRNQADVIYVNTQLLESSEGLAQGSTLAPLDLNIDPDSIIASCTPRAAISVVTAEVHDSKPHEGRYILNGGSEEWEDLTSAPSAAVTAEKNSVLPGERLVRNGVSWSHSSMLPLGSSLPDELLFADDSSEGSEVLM
# KDR (phospho-KDR, VEGF165-stimulated HUVEC cells), sequence (P35968 20-1356): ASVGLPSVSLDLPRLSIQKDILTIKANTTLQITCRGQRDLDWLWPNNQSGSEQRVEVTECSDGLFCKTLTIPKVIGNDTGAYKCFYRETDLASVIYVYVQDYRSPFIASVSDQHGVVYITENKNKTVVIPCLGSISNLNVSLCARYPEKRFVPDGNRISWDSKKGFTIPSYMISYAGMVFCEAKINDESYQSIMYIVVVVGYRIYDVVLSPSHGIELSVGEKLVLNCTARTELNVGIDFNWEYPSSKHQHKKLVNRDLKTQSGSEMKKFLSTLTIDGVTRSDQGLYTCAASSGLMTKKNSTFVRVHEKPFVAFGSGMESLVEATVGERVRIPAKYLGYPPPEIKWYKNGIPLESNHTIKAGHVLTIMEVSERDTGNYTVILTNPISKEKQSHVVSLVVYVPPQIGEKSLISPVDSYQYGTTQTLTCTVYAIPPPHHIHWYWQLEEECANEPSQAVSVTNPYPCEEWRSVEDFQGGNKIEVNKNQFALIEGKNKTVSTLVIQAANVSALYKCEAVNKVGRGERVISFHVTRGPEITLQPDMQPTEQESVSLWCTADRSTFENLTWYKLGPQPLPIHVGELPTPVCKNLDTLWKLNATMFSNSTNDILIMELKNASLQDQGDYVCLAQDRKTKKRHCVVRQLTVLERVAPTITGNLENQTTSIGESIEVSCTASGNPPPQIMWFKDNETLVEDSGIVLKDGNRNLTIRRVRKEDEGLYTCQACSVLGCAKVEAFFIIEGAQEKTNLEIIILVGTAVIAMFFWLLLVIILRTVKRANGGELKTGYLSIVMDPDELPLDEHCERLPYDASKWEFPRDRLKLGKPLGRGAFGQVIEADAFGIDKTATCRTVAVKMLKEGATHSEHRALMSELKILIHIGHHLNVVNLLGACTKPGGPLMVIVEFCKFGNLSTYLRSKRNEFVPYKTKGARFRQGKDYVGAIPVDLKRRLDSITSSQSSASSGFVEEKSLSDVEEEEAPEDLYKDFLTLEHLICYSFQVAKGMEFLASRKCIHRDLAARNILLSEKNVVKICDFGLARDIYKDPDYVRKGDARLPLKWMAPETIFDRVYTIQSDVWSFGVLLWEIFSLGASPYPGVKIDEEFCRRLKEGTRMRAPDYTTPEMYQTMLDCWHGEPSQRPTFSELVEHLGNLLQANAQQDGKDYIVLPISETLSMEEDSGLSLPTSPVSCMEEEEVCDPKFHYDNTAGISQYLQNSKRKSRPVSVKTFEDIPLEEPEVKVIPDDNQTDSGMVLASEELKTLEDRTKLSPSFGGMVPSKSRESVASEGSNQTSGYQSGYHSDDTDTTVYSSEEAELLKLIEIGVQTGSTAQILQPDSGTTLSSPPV
Structure (SMILES),IC50 [1],IC50 [2],IC50 [3],IC50 [4]
"COCc1nc(C)c(-c2ccc(F)cc2C)c(O)c1C(=O)Nc1ccc(Oc2ccnc3cc(C)c(OC)nc23)c(F)c1 [Compound 470, N-[3-fluoro-4-[(6-methoxy-7-methyl-1,5-naphthyridin-4-yl)oxy]phenyl]-5-(4-fluoro-2-methylphenyl)-4-hydroxy-2-(methoxymethyl)-6-methylpyridine-3-carboxamide]",< 100 nM,< 100 nM,< 100 nM,< 100 nM
"COCCOc1nc2c(Oc3ccc(NC(=O)c4c(C)nc(C)c(-c5ccc(F)cc5C)c4O)cc3F)ccnc2cc1OC [Compound 208, N-[3-Fluoro-4-[[7-methoxy-6-(2-methoxyethoxy)-1,5-naphthyridin-4-yl]oxy]phenyl]-5-(4-fluoro-2-methylphenyl)-4-hydroxy-2,6-dimethylpyridine-3-carboxamide]",< 100 nM,< 100 nM,< 100 nM,< 100 nM
"COc1cc2nccc(Oc3ccc(NC(=O)c4c(C)[nH]nc(-c5ccc(F)cc5C)c4=O)cc3F)c2nc1OC [Compound 738, N-[4-[(6,7-dimethoxy-1,5-naphthyridin-4-yl)oxy]-3-fluorophenyl]-3-(4-fluoro-2-methylphenyl)-6-methyl-4-oxo-1H-pyridazine-5-carboxamide]",< 100 nM,< 100 nM,< 100 nM,< 100 nM
"CCOc1c(C(=O)Nc2ccc(Oc3ccnc4cc(OC)c(OC)cc34)c(F)c2)nnc(C)c1-c1ccc(F)cc1 [Compound 572, N-[4-(6,7-Dimethoxyquinolin-4-yl)oxy-3-fluorophenyl]-4-ethoxy-5-(4-fluorophenyl)-6-methylpyridazine-3-carboxamide]",< 100 nM,< 100 nM,< 100 nM,< 100 nM
"CNC(=O)c1cc2nccc(Oc3cc(F)c(NC(=O)c4c(C)nc(C)c(-c5ccc(F)cc5C)c4O)cc3F)c2cc1C [Compound 752, 4-[2,5-difluoro-4-[[5-(4-fluoro-2-methylphenyl)-4-hydroxy-2,6-dimethylpyridine-3-carbonyl]amino]phenoxy]-N,6-dimethylquinoline-7-carboxamide]",< 100 nM,< 100 nM,< 100 nM,< 100 nM
"COc1cc2nccc(Oc3ccc(NC(=O)c4nn(C(F)F)c(C)c(-c5ccc(F)cc5)c4=O)cc3F)c2nc1OC [Compound 721, 1-(difluoromethyl)-N-[4-[(6,7-dimethoxy-1,5-naphthyridin-4-yl)oxy]-3-fluorophenyl]-5-(4-fluorophenyl)-6-methyl-4-oxopyridazine-3-carboxamide]",< 100 nM,< 100 nM,100 to 300 nM,< 100 nM
"COc1cc2nccc(Oc3ccc(NC(=O)c4c(CO)nc(C)c(-c5ccc(F)cc5)c4O)cc3F)c2nc1OC [Compound 652, N-[4-[(6,7-dimethoxy-1,5-naphthyridin-4-yl)oxy]-3-fluorophenyl]-5-(4-fluorophenyl)-4-hydroxy-2-(hydroxymethyl)-6-methylpyridine-3-carboxamide]",< 100 nM,< 100 nM,< 100 nM,< 100 nM
"C=Cc1c(C)c(C(=O)Nc2ccc(Oc3ccnc4cc(OC)c(OC)nc34)cc2)c(=O)n(-c2ccc(F)cc2)c1C [Compound 328, N-[4-[(6,7-Dimethoxy-1,5-naphthyridin-4-yl)oxy]phenyl]-5-ethenyl-1-(4-fluorophenyl)-4,6-dimethyl-2-oxopyridine-3-carboxamide]",< 100 nM,< 100 nM,> 300 nM,< 100 nM
"COc1cc2nccc(Oc3ccc(NC(=O)c4c(C)c(C)nn(-c5ccc(F)cc5)c4=O)cc3)c2nc1OC [Compound 732, N-[4-[(6,7-dimethoxy-1,5-naphthyridin-4-yl)oxy]phenyl]-2-(4-fluorophenyl)-5,6-dimethyl-3-oxopyridazine-4-carboxamide]",< 100 nM,< 100 nM,> 300 nM,< 100 nM
